Results published in patent publication US20240156790A1, “COMPOUNDS, COMPOSITIONS, AND METHODS FOR MODULATING FERROPTOSIS AND TREATING EXCITOTOXIC DISORDERS” (THE TRUSTEES OF COLUMBIA UNIVERSITY IN THE CITY OF NEW YORK, priority 2018, published 2024).
“Also recorded” adds a separate entry of the source. Like-named read-outs stand apart in the source and are kept apart here.

How the values were obtained:
[1] = test system: N27 rat dopaminergic cells; assay: Suppression of ferroptosis induced by RSL3 in N27 cells (CellTiter-Glo viability); type: cell-based
[2] = test system: R6/2 Huntington's mouse model; assay: 30-day toxicity study in symptomatic R6/2 and wild type mice; type: in vivo; settings: for tolerability of chronic administration: 20 mg/kg daily for 30 days, IP and PO; for deaths after 30 days / protection against body weight loss: R6/2 mice; for deaths after 30 days: 20 mg/kg daily
Method: In order to assess whether ferrostatins can be used in a long-term efficacy, we performed a toxicity study with the three analogs to determine whether symptomatic R6/2 mice could tolerate chronic administration of analog. Use TH-4-55-2 as an example: symptomatic R6/2 mice of both sexes at ˜10 weeks of age were dosed daily with 20 mg/kg TH-4-55-2 via both IP and oral gavage for 30 days. Body weight was measured and recorded and the % change in body weight from the baseline calculated. Any mice that lost more than 20% of their body weight for three days were euthanized prior to the completion of the study.
Ferrostatin analogs were dissolved in 5% DMSO/95% of 1:1 [(65% v/v of 25% w/v 2-hydroxypropyl-β-cyclodextrin dissolved in 20% EtOH, 30% v/v Poly(ethylene glycol)-400, 5% v/v Tween 80):MilliQ water] to create a 2 mg/mL solution. The same formulation without analog was used as a vehicle control. The solution was sterilized using a […] Steriflip filter unit. C57BL/6 and R6/2 mice at ˜10 weeks of age, after onset of symptoms in R6/2 mice, were injected with ferrostatin analog or vehicle at a dose of 20 mg/kg daily for 30 days via IP and PO routes of administration. […] Mice were randomly assigned to each condition, weighed daily, the weight recorded, and the change in body weight compared to the baseline, pre-injection weight was calculated. Any mouse that lost more than 20% of its baseline body weight for three consecutive days was euthanized prior to the completion of the study. Injections occurred daily at the same time in the day to ensure consistency. Experimental blinding was achieved by separating the syringe preparation and the injection and data analysis components, with one researcher preparing the syringes and the other injecting the mice and analyzing the data. Unblinding occurred at the termination of the study after the completion of data analysis. Data were plotted and analyzed in Graph Pad Prism 9.0 with significance determined via Two Way ANOVA or Mixed-effects model with Tukey's test for multiple comparisons.
Symptomatic R6/2 and age-matched C57BL/6 wild type mice of both sexes at ˜10 weeks of age were dosed daily with 20 mg/kg of TH-4-55-2 via IP or PO for 30 days. Body weight was measured and recorded and the percent change in body weight from baseline calculated. Per IACUC guidelines, any mouse that lost more than 20% body weight for three days was euthanized prior to completion of the study.

[3] = Solubility in the in vivo injection vehicle; type: physicochemical; settings: solution prepared for in vivo injection, no precipitation observed
Method: To achieve the 20 mg/kg dose for each compound, mice were injected with a 2 mg/mL solution in the vehicle described above.

[4] = test system: R6/2 mice; assay: 45-day drinking water and PO study of ferrostatins in R6/2 mice (weight, survival, Rotarod, Catwalk, LC/MS); type: in vivo
Method: Ferrostatins and 42 μM Citric acid were dissolved in 5% DMSO, 5% ethanol, and 90% PBS rendering a final concentration of 0.29 mg/mL of each ferrostatin in drinking water. The mice drink ˜2 mL water per day, and the resulting dosage was around 20-30 mg/kg/day. R6/2 mice at ˜6-7 weeks of age were treated via drinking water and PO at 20 mg/kg. Mice were weighed daily, the weight recorded, and the change in body weight compared to the baseline, pre-injection weight was calculated. Any mouse that lost more than 20% of its baseline body weight for three consecutive days was euthanized prior to the completion of the study. Mice were euthanized by CO2 asphyxiation for 3 min after administration. Approximately 0.5 mL of blood was collected via cardiac puncture and immediately put in K3 EDTA microtubes and kept on ice. Brains were harvested, placed in Eppendorf tubes, and frozen on dry ice. Blood samples were centrifuged for 10 min at 2,100×g at 4° C., then plasma was transferred to a clean tube and frozen on dry ice.
Brain samples were weighed and placed in hard tissue homogenizing tubes. Two volume of HPLC grade methanol was added to make a solution and homogenized using the Omni Bead Ruptor 4 at speed 5 for two 30-second runs. The product was aliquoted and diluted by adding 900 μL HPLC grade ice-cold methanol. After centrifugation for 20 mins at 14,000×g at 4° C., supernatant was collected in a clean vial and dried by vacuum centrifugation (GeneVac).
Prior to LC-MS analysis, the samples were resuspended in 100 μL methanol and centrifuged for 5 minutes at 14,000×g at 4° C. The supernatant was analyzed via SYNAPT High Resolution Mass Spectrometer.
Rotarod “Linear Incline” experiment was performed with 11- to 12-week-old R6/2 mice at Day 25 with a rotations per minute (RPM) ramp over a 300s duration, start speed of 5 RPM, and max speed of 40 RPM. Mice were acclimated to testing room for 30 minutes prior to experimentation. Latency to fall was recorded in seconds for each mouse, and lanes were cleaned with 70% ethanol between mice.
The Catwalk apparatus (Noldus Information Technology, Leesburg, VA) consisted of an illuminated walled glass walkway (130 cm×10 cm) and a high-speed camera underneath. Mice were allowed 30 minutes to acclimate to the testing room, then behavioral task was performed with 11- to 12-week-old R6/2 mice on Day 25. Mice were placed on the glass walkway and allowed to ambulate freely across the runway towards the goal box at the end of the walkway. A goal box blocked the other end of the walkway, forcing the mouse to return to the entryway. Each mouse completed Catwalk runs until three compliant runs (fluent crossings without stopping/hesitation), were detected and verified, running for as long as needed to do so. Behavioral measures were calculated using Noldus Gait Analysis Software, and pairing and further comparisons were done using RM one-way ANOVAs.
The pharmacokinetic properties of TH-4-55-2 were initially assessed in vivo, focusing on its BBB distribution. Subsequent investigations involved TH-4-67 and TH-2-31. […] This regimen continued for 45 days, during which changes in body weight were monitored (FIG. 29A). Mouse body weights that fell under 20% of baseline measurements were sacrificed, while spontaneous deaths over the course of the study were monitored (FIG. 29B). Motor coordination was assessed via Rotarod behavior measurements (FIG. 30), and gait analysis was conducted using CatWalk (FIGS. 31A-31B).

[5] = Rattus norvegicus, N27, 24 h, 20 nM RSL3, 24 hours, separate experiment I, read-out: IC50 I
[6] = Rattus norvegicus, N27, 24 h, 20 nM RSL3, 24 hours, separate experiment II, read-out: IC50 II
[7] = Rattus norvegicus, N27, 24 h, 20 nM RSL3, 24 hours, separate experiment III, read-out: IC50 III
[8] = Rattus norvegicus, N27, 24 h, Table 3, ^d 24 hr treatment, 1,000 cells/well seeded, read-out: IC50
[9] = Rattus norvegicus, N27, 24 h, Table 13, 20 nM RSL3, treated for 24 hours^d, read-out: IC50
[10] = Rattus norvegicus, N27, 24 h, RSL3 20 nM, 24 hours of treatment, read-out: IC50
[11] = Rattus norvegicus, N27, Table 7, value used for Cmax/IC50, read-out: IC50

Row | Structure (SMILES) | tolerability of chronic administration [2] | protection against body weight loss ([2]; PO administration, 20 mg/kg) | Concentration (mM) [3] [mM] | Concentration (mg/mL) [3] [mg/mL] | potency relative to fer-1, in words ([1]; 20 nM RSL3) | IC50 [1, 5] [nM] | IC50 [1, 6] [nM] | IC50 [1, 7] [nM] | IC50 [1, 8] [nM] | IC50 [1, 9] [nM] | IC50 [1, 10] [nM] | IC50 [1, 11] [nM] | Catwalk gait: Base of Support (BOS) ([4]; PO, Day 25) | other results
1 | CCOC(=O)c1ccc(NC2CCCCC2)c(N)c1 [Fer-1, Ferrostatin-1, reference compound] | – | – | – | – | – | – | – | – | – | – | – | – | – | IC50 ([1]; Rattus norvegicus, N27, Table 3, ^d 24 hr treatment, 1,000 cells/well seeded, read-out: IC50): 3.2 nM; IC50 ([1]; Rattus norvegicus, N27, Table 3, ^e 48 hr treatment, 1,000 cells/well seeded, read-out: IC50): 12.5 nM
2 | CCC(CC)Nc1cc(-c2nc(C)no2)cnc1NC1CCCCC1 [TH-4-55-2, N^2-cyclohexyl-5-(3-methyl-1,2,4-oxadiazol-5-yl)-N^3-(pentan-3-yl)pyridine-2,3-diamine] | well-tolerated in a 30-day toxicity study in wild-type mice and symptomatic R6/2 HD mice; also recorded: non-toxic and well-tolerated by R6/2 mice | protected from body weight loss over time; also recorded: showed protection against HD-related weight loss; also recorded: showed a significant protective effect; also recorded: appeared to have no loss in body weight during the injection series | 5.8 | 2 | more potent than fer-1 | 0.8 | 1 | 4.9 | 2.2 | 2.2 | < 10 | 2.23 | – | deaths after 30 days ([2]; IP administration): one TH-4-55-2-treated mouse died; deaths after 30 days ([2]; PO administration, 20 mg/kg): one TH-4-55-2-treated mouse died; also recorded: one TH-4-55-2-treated mice died; Rotarod latency to fall ([4]; PO 20 mg/kg, Day 25, 20 mg/kg): consistently scored higher compared to control; also recorded: consistently higher mean latency to fall across trials compared to control; accumulation in brain over plasma ([4]; PO and drinking water, 45-day course): preferentially accumulated in the brain over plasma for both routes of administration
3 | Cc1noc(-c2cnc(NC3CCCC3)c(NC3CCCC3)c2)n1 [TH-4-67, N^2,N^3-dicyclopentyl-5-(3-methyl-1,2,4-oxadiazol-5-yl)pyridine-2,3-diamine] | no detectable weight loss induced by either compound | didn't show this protective effect | 6.1 | 2 | more potent than fer-1 | 1.5 | 1.4 | 3.4 | 2.1 | 2.1 | – | 2.1 | significant decrease in Base of Support (BOS); also recorded: significant improvement of BOS in the hind paws of least coordinated mice | Catwalk gait: Cadence ([4]; PO, Day 25, Best performing mice): the leading compound among this group; EC50 ([1]; Rattus norvegicus, N27, text b573): 2 nM
4 | Cc1noc(-c2cnc(NC3CCCCC3)c(NC3CCCCC3)c2)n1 [TH-2-31, N^2,N^3-dicyclohexyl-5-(3-methyl-1,2,4-oxadiazol-5-yl)pyridine-2,3-diamine] | no detectable weight loss induced by either compound | didn't show this protective effect | 5.6 | 2 | less potent than fer-1 | 2.6 | 1.4 | 6.1 | 3.4 | 3.4 | < 10 | 3.37 | significantly worse BOS compared to Vehicle; also recorded: significantly worse performance | –
5 | Cc1noc(-c2ccc(NC3CCCCC3)c(NC3CCCCC3)c2)n1 [PHB4082, N1,N2-dicyclohexyl-4-(3-methyl-1,2,4-oxadiazol-5-yl)benzene-1,2-diamine] | – | – | – | – | – | – | – | – | – | 2.6 | – | – | – | –
